# Laboratory results as given in US20190381198A1, “RA[…]-GAL[…] FOR PET IMAGING OF SENESCENCE” (Eberhard Karls Universitaet Tuebingen Medizinische Fakultaet, priority 2017, published 2019).
# Assays:
# beta-galactosidase = conditions: 30° C., 30 minutes, citrate buffer pH 5.5
# Method: To assess whether tracer 9 is a substrate of beta-galactosidase, it is incubated at 30° C. for 30 minutes in citrate buffer of pH 5.5 containing commercially available betagalactosidase (Sigma). The reaction is stopped by adding 2 volume equivalents of acetonitrile, followed by 5 minutes of centrifugation. The supernatant is examined directly using radio-HPLC. […] The expected radioactive metabolite is compared with the authentic non-radioactive standard (FIG. 2). […] Compound 11 is galactose.
# HCT116 cells = test: in vitro tracer uptake in senescent vs control HCT116 cells (gamma counter); assay type: cell-based; conditions: 3.7-7.4 MBq of tracer, 50 minutes
# Method: (§1) HCT116 (FIG. 4a) and Hras cells (FIG. 4b) are treated with […] of tracer and incubated for 50 minutes. The cells are measured in a gamma-counter, with the activity normalized to the number of cells used.
# (§2) The PET-tracer is tested in two different models in vitro. In HCT116 cells senescence is induced by overnight incubation with doxorubicin, followed by 4 days of culture under normal conditions. Senescence in a HRas driven liver progenitor cell line with a doxycycline regulatable p53-specific shRNA. After induction of senescence, both cell lines are incubated with 3.7-7.4 MBq of tracer for 50 minutes. The cells are then washed, counted and measured in a gamma counter. The activity taken up by the cells is analyzed and normalized to a million cells.
# Hras tumors = test: in vivo PET tracer uptake in s.c. HRas driven tumors, senescence by doxycycline removal; design: species or system nude mice; conditions: for TMR (tumor-to-muscle ratio) / tracer uptake: PET; for tracer uptake: i.v.
# Method: (§3) As the second model, transgenic liver progenitor cell line (Hras) was used for subcutaneous allografts in nude mice. The cell line expresses Hras^G12v and p53shRNA under doxycycline (doxy) conditions. After the removal of doxycycline, the p53 mRNA can be restored and translated to p53 protein. The high amount of p53 triggers senescence. The animals bearing Hras tumors received doxy-water (0.2 mg/ml) for tumor development and 14 days, after removal of doxy-water, the PET/MRT scans are performed with compound 9.
# (§4) In vivo tests are performed in nude mice bearing s.c. HCT116 or HRas driven liver progenitor cells. Mice bearing HCT116 tumors are treated with doxorubicin (10 mg/Kg bodyweight) and imaged 4 days after the onset of senescence. Mice bearing Hras driven tumor are supplied with doxycycline in their drinking water, which has been later removed to induce senescence. After induction of senescence, the tracer is administered i.v. and PET scans are performed. The %ID/cc and tumor-to-muscle ratios are determined through quantitative analysis of the PET data, permitting evaluation of the tracers. In vitro senescent HCT116 cells show an uptake of 11 kBq/1 mio cells, while the uptake in non-senescent control cells is only 4 kBq/1 mio cells.
# Both %ID/cc and TMR are higher in senescent vs control tumors. The excised tumors are subjected to ex vivo analyses. […] Senescent tumor slices also show higher X-Gal staining than control sections. The nonsenescent tumor expresses GFP, which can be visualized with optical imaging.
# [1] = stability of tracer 9 in mouse serum (radio-HPLC); assay type: in vitro ADME; conditions: 37° C., 1 hour
# Method: The tracer 9 is incubated at 37° C. in mouse serum to assess its stability. After 1 hour, 2 volume equivalents of acetonitrile are added and the mixture is centrifuged for 5 minutes. The supernatant is examined directly using radio-HPLC. Serum stability of tracer 9 after 1 h (FIG. 3a) vs tracer 9 (FIG. 3b) is derivable from FIG. 3.
# [2] = test system: HRas driven liver progenitor cell line; test: in vitro tracer uptake in senescent vs control HRas driven liver progenitor cells (gamma counter); assay type: cell-based; conditions: 3.7-7.4 MBq of tracer, 50 minutes
# Method: as §3, §1, §2
# HCT116 tumors = test: in vivo PET tracer uptake in s.c. HCT116 xenograft tumors, doxorubicin-induced senescence; design: species or system nude mice; conditions: for TMR (tumor-to-muscle ratio) / in vivo tracer uptake: PET; for in vivo tracer uptake: i.v.
# Method: A xenograft model of colorectal cancer cell line (HCT116) with therapy induced senescence, doxorubicin is used as a chemotherapeutic. Senescence is induced in HCT116 xenograft tumors by intravenous (i.v.) administration of doxorubicin (10 mg/kg). Through tail vain of the mice, 5 days later dynamic PET/MRT scans (1 h) with compound 9 are performed.
# as §4
# The in vivo tracer uptake in senescent and non-senescent HCT116 tumors (FIG. 5) is 1.7+/−0.7 (n=7) vs 1.1+/−0.4 (n=5) %ID/cc respectively; the respective TMR values are 1.7 and 1.1. […] Both %ID/cc and TMR are higher in senescent vs control tumors. The excised tumors are subjected to ex vivo analyses.
smiles,measurement,setting,value
OC[C@H]1O[C@@H](Oc2cccnc2[18F])[C@H](O)[C@@H](O)[C@H]1O [tracer 9],conversion by beta-galactosidase (radioactive metabolite by radio-HPLC),beta-galactosidase,produces the radioactive metabolite with the same retention time as the non-radioactive 2-fluoropyridinol
same,uptake in senescent cells compared to controls,"HCT116 cells; HCT116 cells, activity normalized to number of cells",significantly higher uptake compared to the controls
same,uptake,HCT116 cells; non-senescent control HCT116 cells,4 kBq/1 mio cells
same,uptake,HCT116 cells; senescent HCT116 cells,11 kBq/1 mio cells
same,"autoradiography of excised tumors, ex vivo","Hras tumors; HRas tumor sections, senescent vs control",higher tracer uptake in the senescent tumor section vs control
same,TMR (tumor-to-muscle ratio),Hras tumors; control HRas tumors,1.2
same,tracer uptake,"Hras tumors; control HRas tumors, n=11",0.9+/−0.3 %ID/cc
same,TMR (tumor-to-muscle ratio),Hras tumors; senescent HRas tumors,2.1
same,tracer uptake,"Hras tumors; senescent HRas tumors, n=16",1.5+/−0.3 %ID/cc
same,serum stability,[1],integrity remains largely intact
same,uptake in senescent cells compared to controls,"[2]; Hras cells, activity normalized to number of cells",significantly higher uptake compared to the controls
same,uptake,[2]; non-senescent HRas driven liver progenitor cells,63 kBq/1 mio cells
same,uptake,[2]; senescent HRas driven liver progenitor cells,192 kBq/1 mio cells
same,"autoradiography of excised tumors, ex vivo","HCT116 tumors; HCT116 tumor sections, senescent vs control",higher tracer uptake in the senescent tumor section vs control
same,TMR (tumor-to-muscle ratio),HCT116 tumors; non-senescent HCT116 tumors,1.1
same,in vivo tracer uptake,"HCT116 tumors; non-senescent HCT116 tumors, n=5",1.1+/−0.4 %ID/cc
same,TMR (tumor-to-muscle ratio),HCT116 tumors; senescent HCT116 tumors,1.7
same,in vivo tracer uptake,"HCT116 tumors; senescent HCT116 tumors, n=7",1.7+/−0.7 %ID/cc
